This is an account of results in patent US20220000805A1, “COMBINATION OF M-OPIOID RECEPTOR (MOR) MODULATORS FOR PREVENTING AND TREATING PAIN, S[…] MENTAL DISORDERS” (HADAS IT MEDICAL RESEARCH SERVICES & DEVELOPMENT LIMITED, priority 2018, published 2022).

Several values for one entry are separate records, joined by “and”; a condition that tells them apart may be missing. Equal entries are not always repeated. Where two headings read alike, the source gives them in different places. Where only a bound is given, the exact number is not on record here.

One series has as its system opioid-receptor. As to conditions: opioid agonist; relative to 7-hydroxymitragynine; cited from earlier work.
For series [1] the following is noted: single iv bolus dose of 0.5 mg/kg racemic ketamine; for at least 24 hrs; cited from earlier work.
The target of another series is T1, h-OPRM1 (human MOR) (Homo sapiens, UniProt P35372).
T1 construct: host or cells: Chinese hamster ovary (CHO) cells, cAMP Hunter cell line
The format is cell-based. The method, then: Tracking cAMP Secondary Messenger Pathway in MOR Expressing Cells (DiscoverX)
A Chinese hamster ovary cell line stably expressing non-tagged h-OPRM1 (human MOR) that signal through cAMP was used.
1. cAMP Hunter cell line expressing h-OPRM1 was expanded from freezer stocks according to standard procedures. 2. Cells were seeded in a total volume of 20 μL into white walled, 384-well microplates and incubated at 37° C. for the appropriate time prior to testing. 3. cAMP modulation was determined using the DiscoverX HitHunter cAMP XS+ assay (for further details, see below).
1. For agonist determination, cells were incubated with sample in the presence of EC80 forskolin to induce cAMP-generation and Gi agonist activity, inhibiting cAMP formation, by the test compound was assayed, as follows: 2. Media was aspirated from cells and replaced with 15 μL 2:1 HBSS/10 mM Hepes: cAMP XS+Ab reagent. 3. Intermediate dilution of sample stocks was performed to generate 4× sample in assay buffer containing 4× EC80 forskolin. An amount of 4.5 μL of 4× sample was added to cells and incubated at 37° C. or room temperature for 30 or 60 minutes. The vehicle used for all stock solutions is DMSO and its final concentration in the assay system was 1%.
1. After appropriate compound incubation, assay signal was generated through incubation with 20 μL cAMP XS+ED/CL lysis cocktail for one hour followed by incubation with 20 μL cAMP XS+EA reagent for three hours at room temperature. 2. Microplates were read following signal generation with a PerkinElmer Envision™ instrument for chemiluminescent signal detection.
1. Compound activity was analyzed using CBIS data analysis suite (ChemInnovation, CA). 2. For Gi agonist mode assays, percentage activity is calculated using the following formula: % Activity=100%×(1−(mean RLU of test sample−mean RLU of MAX control)/(mean RLU of vehicle control−mean RLU of MAX control)).
OPRM1, the μ-opioid receptor (MOR), is a GPCR with high affinity for enkephalins and beta-endorphin, but a low affinity for dynorphins. The prototypical OPRM1 agonist is morphine, the primary psychoactive alkaloid in opium. It is an inhibitory G-protein coupled receptor that activates the Gi alpha subunit, inhibiting adenylate cyclase activity, thereby lowering cAMP levels. In order to test synergy of various drug combinations, towards the human receptor (h-OPRM1), a high sensitivity and absolute selectivity assay system, developed by DiscoverX (Fremont, Calif., USA) was employed. The analytical power of this assay, described in detail below, enables unequivocal identification of agonistic or antagonistic activity of drugs towards h-OPRM1, at the biologically relevant cellular context. […] A positive control dose-response was also examined in parallel (see FIG. 6).

T1 sequence (P35372 whole entry): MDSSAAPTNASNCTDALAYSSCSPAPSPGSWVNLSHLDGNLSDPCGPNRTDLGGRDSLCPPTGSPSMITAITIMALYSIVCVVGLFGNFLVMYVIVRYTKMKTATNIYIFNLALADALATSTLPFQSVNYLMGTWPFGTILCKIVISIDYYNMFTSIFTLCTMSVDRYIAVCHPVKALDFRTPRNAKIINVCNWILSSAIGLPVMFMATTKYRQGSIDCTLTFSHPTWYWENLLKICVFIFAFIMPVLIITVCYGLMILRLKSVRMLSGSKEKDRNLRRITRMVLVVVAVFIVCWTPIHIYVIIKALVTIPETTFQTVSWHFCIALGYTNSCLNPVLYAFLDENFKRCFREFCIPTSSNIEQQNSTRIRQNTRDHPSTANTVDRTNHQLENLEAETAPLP

Turning to “10-fluoro ethylene glycol adduct of 7-hydroxymitragynine”, in the series on opioid-receptor, the “potency higher than 7-hydroxymitragynine” value is recorded as 4 fold.
Regarding `CNC1(c2ccccc2Cl)CCCCC1=O` (racemic) [Ketamine, (RS)-2-(2-Chlorophenyl)-2-(methylamino)cyclohexanone], the HNK serum concentrations result in series [1] is “about 30 nM”.
On to `CN1c2ccccc2C(NCCCCCCC(=O)O)c2ccc(Cl)cc2S1(=O)=O` (stereo not shown) [Tia, 7-[(3-Chloro-6-methyl-5,5-dioxo-11H-benzo[c][2,1]benzothiazepin-11-yl)amino]heptanoic acid], for which the “amount of the single agent that obtains the level of activity of the combination” value on h-OPRM1 (human MOR) was more than 5 ×.
In the case of `N[C@@]1(c2ccccc2Cl)CCC[C@@H](O)C1=O.O=C(O)C(F)(F)F` (racemic) [HNK, rac-(2r,6r)-2 amino-2-(2-chlorophenyl)-6-hydroxycyclohexan-1-one; trifluoroacetic acid, trans], on h-OPRM1 (human MOR), the “agonistic activity of the ketamine active metabolite by itself” value is listed as “no agonistic activity”. Besides, the “Agonistic activity (% of maximal c-AMP inhibition)” value is 0% and 3.1% on h-OPRM1 (human MOR) (HNK 0.08 nM by itself, Table 2/5 series); 0% and 7.6% at h-OPRM1 (human MOR) (HNK 0.4 nM by itself, Table 2/5 series); 0% on h-OPRM1 (human MOR) (HNK 2 nM by itself, Table 2/5 series); 0% at h-OPRM1 (human MOR) (HNK 10 nM by itself, Table 2/5 series); 1.3% on h-OPRM1 (human MOR) (HNK 50 nM by itself, Table 1 series); 0% and 6.7% on h-OPRM1 (human MOR) (HNK 50 nM by itself, Table 2/5 series). Moreover, the “Agonistic activity (% of maximal c-AMP inhibition)” value on h-OPRM1 (human MOR) (HNK 300 nM by itself, Table 1 series) is on record as 10.3%; on h-OPRM1 (human MOR) (HNK 1,800 nM by itself, Table 1 series), −3.4%; at h-OPRM1 (human MOR) (HNK 11,000 nM by itself, Table 1 series), −8.6%.
